SMILES strings stand for the structures.

The test system of one assay is uterus. The experiment in a line: Uterine wet weight in LTED tumor bearing mice. The class given is in vivo, Nu:J mice. Conditions: ovariectomized LTED tumor bearing mice, after 4 weeks of treatment at the LTED study doses.
For another assay, the system named is TamR xenograft tumors. The experiment in a line: TamR Study 2: growth of tamoxifen-resistant xenograft tumors under oral SERDs.

On to `N#Cc1ccc(C(c2ccc(C#N)cc2)n2cncn2)cc1` [Letrozole, letrozole], for which the “Uterine wet weight (measure of uterine stimulation)” value (“Uterine wet weight” for short) with uterus was “no response of uterine weight”.

As for `CC/C(=C(/c1ccc(/C=C/C(=O)O)cc1)c1ccc2[nH]ncc2c1)c1ccc(F)cc1Cl` [GDC0810], the “Uterine wet weight” value with uterus was “significantly increased uterine weight”. The “% tumor growth inhibition of TamR tumors” value is recorded as −5% in the assay with TamR xenograft tumors (GDC0810 25 mg/kg po qd, day 0 of treatment); 11% in the assay with TamR xenograft tumors (GDC0810 25 mg/kg po qd, day 2 of treatment); 22% with TamR xenograft tumors (GDC0810 25 mg/kg po qd, day 4 of treatment); 28% in the assay on TamR xenograft tumors (GDC0810 25 mg/kg po qd, day 7 of treatment); 27% with TamR xenograft tumors (GDC0810 25 mg/kg po qd, day 9 of treatment); 35% in the assay on TamR xenograft tumors (GDC0810 25 mg/kg po qd, day 11 of treatment). Further, the “% tumor growth inhibition of TamR tumors” value amounted to 32% in the assay with TamR xenograft tumors (GDC0810 25 mg/kg po qd, day 14 of treatment); 42% in the assay with TamR xenograft tumors (GDC0810 25 mg/kg po qd, day 16 of treatment); 51% with TamR xenograft tumors (GDC0810 25 mg/kg po qd, day 18 of treatment); 49% with TamR xenograft tumors (GDC0810 25 mg/kg po qd, day 21 of treatment); 53% with TamR xenograft tumors (GDC0810 25 mg/kg po qd, day 23 of treatment); 53% in the assay on TamR xenograft tumors (GDC0810 25 mg/kg po qd, day 25 of treatment). Further, the “% tumor growth inhibition of TamR tumors” value with TamR xenograft tumors (GDC0810 25 mg/kg po qd, day 28 of treatment) came out at 52%.

As for `C[C@@H]1Cc2c([nH]c3ccccc23)[C@@H](c2c(F)cc(/C=C/C(=O)O)cc2F)N1CC(C)(C)F` [AZD9496], the “Uterine wet weight” value in the assay with uterus was “significantly increased uterine weight”. Moreover, the “% tumor growth inhibition of TamR tumors” value was −3% with TamR xenograft tumors (AZD9496 10 mg/kg po qd, day 0 of treatment); 13% in the assay on TamR xenograft tumors (AZD9496 10 mg/kg po qd, day 2 of treatment); 18% in the assay with TamR xenograft tumors (AZD9496 10 mg/kg po qd, day 4 of treatment); 27% in the assay with TamR xenograft tumors (AZD9496 10 mg/kg po qd, day 7 of treatment); 24% in the assay with TamR xenograft tumors (AZD9496 10 mg/kg po qd, day 9 of treatment); 30% with TamR xenograft tumors (AZD9496 10 mg/kg po qd, day 11 of treatment). Moreover, the “% tumor growth inhibition of TamR tumors” value with TamR xenograft tumors (AZD9496 10 mg/kg po qd, day 14 of treatment) amounted to 31%; in the assay with TamR xenograft tumors (AZD9496 10 mg/kg po qd, day 16 of treatment) it was 32%; in the assay with TamR xenograft tumors (AZD9496 10 mg/kg po qd, day 18 of treatment) it was 36%; with TamR xenograft tumors (AZD9496 10 mg/kg po qd, day 21 of treatment) it was 43%; in the assay with TamR xenograft tumors (AZD9496 10 mg/kg po qd, day 23 of treatment), 47%; in the assay on TamR xenograft tumors (AZD9496 10 mg/kg po qd, day 25 of treatment), 46%. Besides, the “% tumor growth inhibition of TamR tumors” value with TamR xenograft tumors (AZD9496 10 mg/kg po qd, day 28 of treatment) is on record as 43%.

These data come from PMC6985185 (Breast cancer research and treatment, 2019).
